Our source for the IC50 values is patent US20130029970A1 (priority 2009, published 2013).

The target in assay [1] is T1, recombinant human cannabinoid receptor CB1 (Homo sapiens, UniProt P21554).
T1 construct: (cDNA clone) CNR01L000
Kind of assay: Cannabinoid receptor radioligand binding assay, [3H]-CP 55,940 displacement, hCB1. In short, it runs like this: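 Displacement of 0.5 nM [3H]-CP 55,940 (1 μM unlabeled CP 55,940 for nonspecific) measured by filtration and scintillation counting. Binding ran 90 min at room temperature in pH 7.5 Tris buffer with 0.1% fatty-acid-free BSA, using recombinant hCB1 HEK-293 membranes at 2-10 μg protein.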

Assay [2] addresses T2, recombinant human cannabinoid receptor CB2 (Homo sapiens, UniProt P34972).
T2 construct: (cDNA clone) CNR0200000
Description: Cannabinoid receptor radioligand binding assay, [3H]-CP 55,940 displacement, hCB2. In short, it runs like this: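 Receptor source: membrane pellet (40,000×g) from transfected cells, stored in HEPES pH 7.4/MgCl2/EDTA/sucrose buffer.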

Structures are written as SMILES.

T2 sequence (P34972 whole entry): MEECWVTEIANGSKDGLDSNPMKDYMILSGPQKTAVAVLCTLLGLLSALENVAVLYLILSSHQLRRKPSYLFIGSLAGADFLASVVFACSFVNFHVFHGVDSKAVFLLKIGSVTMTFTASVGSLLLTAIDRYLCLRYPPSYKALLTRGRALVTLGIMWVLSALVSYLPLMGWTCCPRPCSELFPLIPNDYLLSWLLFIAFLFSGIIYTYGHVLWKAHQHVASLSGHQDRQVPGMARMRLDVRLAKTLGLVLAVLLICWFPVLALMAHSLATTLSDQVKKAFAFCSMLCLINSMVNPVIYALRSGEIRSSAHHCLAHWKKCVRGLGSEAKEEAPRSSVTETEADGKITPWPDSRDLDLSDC
T1 sequence (P21554 whole entry): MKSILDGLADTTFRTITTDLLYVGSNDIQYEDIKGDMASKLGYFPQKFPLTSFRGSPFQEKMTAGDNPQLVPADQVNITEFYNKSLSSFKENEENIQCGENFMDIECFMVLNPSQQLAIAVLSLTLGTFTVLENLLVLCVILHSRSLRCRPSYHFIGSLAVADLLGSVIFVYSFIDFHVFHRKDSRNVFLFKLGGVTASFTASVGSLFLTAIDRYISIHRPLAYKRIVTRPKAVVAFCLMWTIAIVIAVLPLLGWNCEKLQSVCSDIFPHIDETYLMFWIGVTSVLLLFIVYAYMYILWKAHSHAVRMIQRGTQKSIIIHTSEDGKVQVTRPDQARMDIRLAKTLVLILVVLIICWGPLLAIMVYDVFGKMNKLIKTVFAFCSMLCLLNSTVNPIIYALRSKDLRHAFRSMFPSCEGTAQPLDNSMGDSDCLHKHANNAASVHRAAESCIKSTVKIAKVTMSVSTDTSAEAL

Consider `CNc1ccc(C(=O)c2cc3cc(C)n(CCN4CCOCC4)c3s2)cc1` [Compound 134, (5-methyl-6-(2-morpholinoethyl)-6H-thieno[2,3-b]pyrrol-2-yl)(4-(methylamino)phenyl)methanone], for which the values for the half-maximal inhibitory concentration (IC50) in assay [1] and in assay [2] were 1000 to 10000 nM and 100 to 1000 nM, respectively.

With `COc1ccc(C(C)(O)c2cc3cc(C)n(CCN4CCOCC4)c3s2)cc1` (centres unmarked) [Compound 101, 1-(4-methoxyphenyl)-1-(5-methyl-6-(2-morpholinoethyl)-6H-thieno[2,3-b]pyrrol-2-yl)ethanol], the results for the IC50 in assay [1] and in assay [2] were 1000 to 10000 nM and 100 to 1000 nM, respectively.

With `COc1ccc(C(=O)c2cc3cc(C)n(CCN4CCOCC4)c3s2)nc1` [Compound 131, (5-methoxypyridin-2-yl)(5-methyl-6-(2-morpholinoethyl)-6H-thieno[2,3-b]pyrrol-2-yl)methanone], the IC50 fell in the range of 1000 to 10000 nM in assay [1] and 100 to 1000 nM in assay [2].

Turning to `Cc1ccc(C(=O)c2cc3cc(C)n(CCN4CCOCC4)c3s2)cn1` [Compound 130, (5-methyl-6-(2-morpholinoethyl)-6H-thieno[2,3-b]pyrrol-2-yl)(6-methylpyridin-3-yl)methanone], the IC50 in assay [1] is over 10000 nM; in assay [2], 1000 to 10000 nM.

Take `Cc1cc2cc(C(=O)c3ccc(Cl)cc3)sc2n1CCN1CCOCC1` [Compound 6, (4-Chlorophenyl)(5-methyl-6-(2-morpholinoethyl)-6H-thieno[2,3-b]pyrrol-2-yl)methanone]: the IC50 in assay [1] lay within 1000 to 10000 nM; in assay [2] it was 100 to 1000 nM.

In the case of `COc1ccc(C(=O)c2cc3c(Cl)c(C)n(CCN4CCOCC4)c3s2)cc1` [Compound 140, (4-chloro-5-methyl-6-(2-morpholinoethyl)-6H-thieno[2,3-b]pyrrol-2-yl)(4-methoxyphenyl)methanone], the concentration for half-maximal inhibition (IC50) in assay [1] was in the range of 1000 to 10000 nM; in assay [2], 100 to 1000 nM.

In the case of `Cc1ccc(C(=O)c2cc3cc(C)n(CCN4CCOCC4)c3s2)c(F)c1` [Compound 80, (2-Fluoro-4-methylphenyl)(5-methyl-6-(2-morpholinoethyl)-6H-thieno[2,3-b]pyrrol-2-yl)methanone], the results for the half-inhibitory concentration (IC50) in assay [1] and in assay [2] were 1000 to 10000 nM and 100 to 1000 nM, respectively.

`COc1ccc(C(=O)c2cc3cc(C)n(CCN4CCCC4)c3s2)c(Cl)c1` [Compound 93, (2-Chloro-4-methoxyphenyl)(5-methyl-6-(2-(pyrrolidin-1-yl)ethyl)-6H-thieno[2,3-b]pyrrol-2-yl)methanone]: the half-inhibitory concentration (IC50) was 100 to 1000 nM in assay [1] and under 100 nM in assay [2].

As for `CCOc1ccc(C(=O)c2cc3cc(C)n(CCN4CCOCC4)c3s2)c(F)c1` [Compound 89, (4-Ethoxy-2-fluorophenyl)(5-methyl-6-(2-morpholinoethyl)-6H-thieno[2,3-b]pyrrol-2-yl)methanone], the IC50 in assay [1] lay in the range of 1000 to 10000 nM; in assay [2], 100 to 1000 nM.

Consider `Cc1cc2cc(C(=O)c3ccc(N(C)C(=O)OC(C)(C)C)cc3)sc2n1CCN1CCOCC1` [Compound 132, tert-butylmethyl(4-(5-methyl-6-(2-morpholinoethyl)-6H-thieno[2,3-b]pyrrole-2-carbonyl)phenyl)carbamate], for which the IC50 in assay [1] and in assay [2] was 1000 to 10000 nM in each case.

Regarding `Cc1cc2cc(C(=O)c3cccc(Cl)c3Cl)sc2n1CCN1CCCCC1` [Compound 23, (2,3-Dichlorophenyl)(5-methyl-6-(2-(piperidin-1-yl)ethyl)-6H-thieno[2,3-b]pyrrol-2-yl)methanone], the figures for the IC50 in assay [1] and in assay [2] were 100 to 1000 nM and under 100 nM, respectively.

As to `Cc1cc2cc(C(=O)c3ccc4c(c3)OCO4)sc2n1CCN1CCOCC1` [Compound 106, Benzo[d][1,3]dioxol-5-yl(5-methyl-6-(2-morpholinoethyl)-6H-thieno[2,3-b]pyrrol-2-yl)methanone], the IC50 in assay [1] was in the range of 1000 to 10000 nM; in assay [2] it was 100 to 1000 nM.

Turning to `Cc1ccc(C(=O)c2cc3cc(C)n(CCN4CCOCC4)c3s2)cc1` [Compound 124, (5-Methyl-6-(2-morpholinoethyl)-6H-thieno[2,3-b]pyrrol-2-yl)(p-tolyl)methanone], the IC50 in assay [1] lay in the range of 1000 to 10000 nM; in assay [2] it was 100 to 1000 nM.

As for `COc1ccc(C(=O)c2cc3cc(C)n(CCN4CCOC4=O)c3s2)cc1` [Compound 50, 3-(2-(2-(4-Methoxybenzoyl)-5-methyl-6H-thieno[2,3-b]pyrrol-6-yl)ethyl)oxazolidin-2-one], the IC50 in assay [1] is over 10000 nM; in assay [2], 1000 to 10000 nM.

In the case of `COc1ccc(C(=O)c2cc3cc(C)n(CCCNS(C)(=O)=O)c3s2)c(C)c1` [Compound 96, N-(3-(2-(4-Methoxy-2-methylbenzoyl)-5-methyl-6H-thieno[2,3-b]pyrrol-6-yl)propyl)methanesulfonamide], the half-maximal inhibitory concentration (IC50) was 1000 to 10000 nM in assay [1] and under 100 nM in assay [2].

Consider `Cc1cc2cc(C(=O)c3ccccc3N)sc2n1CCN1CCOCC1` [Compound 48, (2-Aminophenyl)(5-methyl-6-(2-morpholinoethyl)-6H-thieno[2,3-b]pyrrol-2-yl)methanone], for which the figures for the IC50 in assay [1] and in assay [2] were over 10000 nM and under 100 nM, respectively.

Consider `CCN(CC)CCn1c(C)cc2cc(C(=O)c3ccc(OC)nc3)sc21` [Compound 142, (6-(2-(diethylamino)ethyl)-5-methyl-6H-thieno[2,3-b]pyrrol-2-yl)(6-methoxypyridin-3-yl)methanone], for which the concentration for half-maximal inhibition (IC50) in assay [1] was over 10000 nM; in assay [2], 1000 to 10000 nM.

Turning to `COc1ccc(C(=O)c2cc3cc(C)n(CCN4CCOCC4)c3s2)cc1` [Compound 36, (4-methoxyphenyl)(5-methyl-6-(2-morpholinoethyl)-6H-thieno[2,3-b]pyrrol-2-yl)methanone], the results for the IC50 in assay [1] and in assay [2] were 1000 to 10000 nM and under 100 nM, respectively.

As for `Cc1cc2cc(C(=O)c3cccc4c3OCC4)sc2n1CCN1CCOCC1` [Compound 11, (2,3-Dihydrobenzofuran-7-yl)(5-methyl-6-(2-morpholinoethyl)-6H-thieno[2,3-b]pyrrol-2-yl)methanone], the IC50 in assay [1] and in assay [2] was 100 to 1000 nM in each case.

As to `Cc1cc2cc(C(=O)c3cccc(Cl)c3Cl)sc2n1S(=O)(=O)N(C)C` [Compound 41, 2-(2,3-Dichlorobenzoyl)-N,N,5-trimethyl-6H-thieno[2,3-b]pyrrole-6-sulfonamide], the IC50 was 100 to 1000 nM in assay [1] and under 100 nM in assay [2].

As to `COc1ccc(C(=O)c2cc3cc(C)n(CCN4CCOCC4)c3s2)c(F)c1` [Compound 68, (2-Fluoro-4-methoxyphenyl)(5-methyl-6-(2-morpholinoethyl)-6H-thieno[2,3-b]pyrrol-2-yl)methanone], the IC50 in assay [1] was 1000 to 10000 nM; in assay [2] it was under 100 nM.

With `Cc1cc2cc(C(=O)c3cccc(Cl)n3)sc2n1CCN1CCOCC1` [Compound 123, (6-Chloropyridin-2-yl)(5-methyl-6-(2-morpholinoethyl)-6H-thieno[2,3-b]pyrrol-2-yl)methanone], the figures for the IC50 in assay [1] and in assay [2] were 1000 to 10000 nM and 100 to 1000 nM, respectively.

For `COc1ccc(C(=O)c2cc3cc(C)n(CCCCNS(C)(=O)=O)c3s2)cc1` [Compound 102, N-(4-(2-(4-Methoxybenzoyl)-5-methyl-6H-thieno[2,3-b]pyrrol-6-yl)butyl)methanesulfonamide], the values for the IC50 in assay [1] and in assay [2] were 1000 to 10000 nM and under 100 nM, respectively.

Turning to `COc1ccc(C(=O)c2cc3cc(C)n(CCCNS(C)(=O)=O)c3s2)cn1` [Compound 109, N-(3-(2-(6-Methoxynicotinoyl)-5-methyl-6H-thieno[2,3-b]pyrrol-6-yl)propyl)methanesulfonamide], the figures for the IC50 in assay [1] and in assay [2] were over 10000 nM and 100 to 1000 nM, respectively.

With `COc1ccc(C(=O)c2cc3cc(C)n(CC4CCOCC4)c3s2)c(F)c1` [Compound 145, (2-fluoro-4-methoxyphenyl)(5-methyl-6-((tetrahydro-2H-pyran-4-yl)methyl)-6H-thieno[2,3-b]pyrrol-2-yl)methanone], the IC50 in assay [1] was 1000 to 10000 nM; in assay [2] it was under 100 nM.

In the case of `CCCn1c(C)cc2cc(C(=O)c3cccc(Cl)c3Cl)sc21` [Compound 3, (2,3-Dichlorophenyl)(5-methyl-6-propyl-6H-thieno[2,3-b]pyrrol-2-yl)methanone], the 50% inhibitory concentration (IC50) in assay [1] was in the range of 1000 to 10000 nM; in assay [2] it was 100 to 1000 nM.

With `COc1ccc(C(=O)c2cc3cc(C)n(CCN4CCCCC4)c3s2)c(O)c1` [Compound 99, (2-Hydroxy-4-methoxyphenyl)(5-methyl-6-(2-(piperidin-1-yl)ethyl)-6H-thieno[2,3-b]pyrrol-2-yl)methanone], the half-maximal inhibitory concentration (IC50) is 1000 to 10000 nM in assay [1] and 100 to 1000 nM in assay [2].

As for `Cc1cc2cc(C(=O)c3cccc(Cl)c3Cl)sc2n1CC1CCCCN1C` (centres unmarked) [Compound 24, (2,3-Dichlorophenyl)(5-methyl-6((1-methylpiperidin-2-yl)methyl)-6H-thieno[2,3-b]pyrrol-2-yl)methanone], the IC50 in assay [1] was 100 to 1000 nM; in assay [2] it was under 100 nM.

As for `COc1ccc(C(=O)c2cc3cc(C)n(CCNS(C)(=O)=O)c3s2)cc1` [Compound 71, N-(2-(2-(4-Methoxybenzoyl)-5-methyl-6H-thieno[2,3-b]pyrrol-6-yl)ethyl)methanesulfonamide], the half-inhibitory concentration (IC50) in assay [1] is over 10000 nM; in assay [2], 1000 to 10000 nM.

As to `COc1cc(F)c(C(=O)c2cc3cc(C)n(CCN4CCOCC4)c3s2)c(F)c1` [Compound 127, (2,6-difluoro-4-methoxyphenyl)(5-methyl-6-(2-morpholinoethyl)-6H-thieno[2,3-b]pyrrol-2-yl)methanone], the values for the IC50 in assay [1] and in assay [2] were 1000 to 10000 nM and under 100 nM, respectively.

Turning to `Cc1cc2cc(C(=O)c3cccnc3Cl)sc2n1CCN1CCOCC1` [Compound 17, (2-Chloropyridin-3-yl)(5-methyl-6-(2-morpholinoethyl)-6H-thieno[2,3-b]pyrrol-2-yl)methanone], the half-inhibitory concentration (IC50) in assay [1] is over 10000 nM; in assay [2], 100 to 1000 nM.
